Test results reported in patent EP3290412A1, “HIV-1 NUCLEOCAPSID INHIBITORS” (Università degli Studi di Siena, priority 2016, dated 2018).

What was measured:
[1] = tested on: Peripheral blood mononuclear cells (PBMC); format: cell-based; settings: human, 7 days
Procedure, shortened: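 Cytotoxicity measured after 7 days of compound exposure by MTS conversion (OD 490 nm, 4 h). The cells were PHA-activated (5 µg/mL, 2 days) donor PBMC, cultured with 20 IU/mL IL-2 at 1x10^5 cells/well. TD50 is the dose killing 50% versus untreated control, read from the dose-mortality curve.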

[2] = biological target: T1, full length (1-55) HIV-1 NCp7 (Human immunodeficiency virus type 1 group M subtype B, UniProt P12493); experiment: Electromobility Shift Assay (EMSA), competition for ssDNA binding; settings: NCp7 300 nM, M13mp18 ssDNA; positive = >25% inhibition at 100µM
T1 construct: recombinant full length (1-55) HIV-1 NCp7 proteins; made in house
Procedure, shortened: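 Recombinant NL4-3 NCp7 (300 nM in the pre-mix) was combined with compound in 20 mM Tris-HCl pH 7.4, 2 mM MgCl2, 100 mM NaCl, 1 mM DTT, then M13mp18 ssDNA was added for 25 min at 37 °C. Complexes were run on 1% agarose/0.5x TBE and stained with SybrGold. IC50 is the concentration at which bound ssDNA migrated 50% of the bound–unbound distance (triplicate).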

HeLa cells = experiment: HeLa Proliferation assay (CellTiter Glo); format: cell-based; settings: 72 hours
Procedure, shortened: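 Viability measured with CellTiter Glo after 72 h compound exposure (37 °C, 5% CO2, humidified) of HeLa cells seeded at 2000 per well in 10% FBS DMEM without phenol red and allowed 4 h recovery.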

SMILES | Proliferation assay PBMC TD50 [1] | EMSA screening results [2] | Proliferation assay HELA TD50 (HeLa cells)
C[C@H](NC(=O)c1nc(-c2ccc(C(=O)OCc3ccccc3)cn2)nc(O)c1O)C1CCCCC1 [Compound 70, benzyl (S)-6-(4-((1-cyclohexylethyl)carbamoyl)-5,6-dihydroxypyrimidin-2-yl)nicotinate] | 500 nM | Positive (A compound showing >25% inhibition when tested at 100µM concentration is considered as "positive") | 4.1006 µM
C[C@H](NC(=O)c1nc(-c2cc(C(=O)OCc3ccccc3)ccn2)nc(O)c1O)C1CCCCC1 [Compound 71, benzyl (S)-2-(4-((1-cyclohexylethyl)carbamoyl)-5,6-dihydroxypyrimidin-2-yl)isonicotinate] | 1420 nM | Positive (A compound showing >25% inhibition when tested at 100µM concentration is considered as "positive") | 12.825 µM
C[C@H](NC(=O)c1nc(-c2cc3ccccc3cn2)nc(O)c1O)C1CCCCC1 [Compound 72, (S)-N-(1-cyclohexylethyl)-5,6-dihydroxy-2-(isoquinolin-3-yl)pyrimidine-4-carboxamide] | 2270 nM | Positive (A compound showing >25% inhibition when tested at 100µM concentration is considered as "positive") | 3.4875 µM
Cc1cc(-c2nc(O)c(O)c(C(=O)N[C@H](C)C3CCCCC3)n2)nc2ccccc12 [Compound 73, (R)-N-(1-cyclohexylethyl)-5,6-dihydroxy-2-(4-methylquinolin-2-yl)pyrimidine-4-carboxamide] | 5790 nM | Positive (A compound showing >25% inhibition when tested at 100µM concentration is considered as "positive") | 5.3719 µM
C[C@@H](NC(=O)c1nc(-c2cc(C(=O)NCc3ccccc3)ccn2)nc(O)c1O)C1CCCCC1 [Compound 74, (R)-2-(4-(benzylcarbamoyl)pyridin-2-yl)-N-(1-cyclohexylethyl)-5,6-dihydroxypyrimidine-4-carboxamide] | 1680 nM | Positive (A compound showing >25% inhibition when tested at 100µM concentration is considered as "positive") | 3.6728 µM
C[C@H](NC(=O)c1nc(-c2ccc3ccccc3n2)nc(O)c1O)C1CCCCC1 [Compound 75, (S)-N-(1-cyclohexylethyl)-5,6-dihydroxy-2-(quinolin-2-yl)pyrimidine-4-carboxamide] | 6900 nM | Positive (A compound showing >25% inhibition when tested at 100µM concentration is considered as "positive") | 7.5355 µM
Cc1ccnc(-c2nc(O)c(O)c(C(=O)NC3(C4CCCCC4)CC3)n2)c1 [Compound 84, N-(1-cyclohexylcyclopropyl)-5,6-dihydroxy-2-(4-methylpyridin-2-yl)pyrimidine-4-carboxamide] | 3470 nM | Positive (A compound showing >25% inhibition when tested at 100µM concentration is considered as "positive") | 1.9245 µM
CC(NC(=O)c1nc(-c2nccc3ccccc23)nc(O)c1O)C1CCC(F)(F)CC1 (stereo not drawn) [Compound 90, N-(1-(4,4-difluorocyclohexyl)ethyl)-5,6-dihydroxy-2-(isoquinolin-1-yl)pyrimidine-4-carboxamide] | 4270 nM | Positive (A compound showing >25% inhibition when tested at 100µM concentration is considered as "positive") | 6.4522 µM
